The values that follow come from US20120141561A1, “NANOPARTICULATE CANDESARTAN CILEXITIL COMPOSITIONS, PROCESS FOR THE PREPARATION THEREOF AND PHARMACEUTICAL COMPOSITIONS CONTAINING THEM” (priority 2009, published 2012).

Each structure is given as a SMILES string.

The conditions of data set [1]: rats; cited from earlier work.
For data set [2] the following is noted: cited from earlier work.
Data set [3] can be described thus: Comparative dissolution test in distillate water. The class given is physicochemical. The settings on record: 5 mg in 10 mL distillate water. On the procedure:
The suspension was stirred for 1, 5, 10, 15, 20, and 30 minutes and then it was filtered by 0.2 μm disposable syringe filter.

For data set [4] the following is noted: rat, in vivo, po, 10 mg/kg. The method, then: In Vivo Pharmacokinetic Tests Male Sprague-Dawley Rats in Fasted Condition
Comparative In Vivo Pharmacokinetic Tests in Male Sprague-Dawley Rats in Fasted Condition
Both test substances were administered via gastric tube in a dosing volume of 5 ml/kg. The vehicle of the test items was sterile 0.9% NaCl solution and the suspension was kept homogenous by continuous stirring during treatment in order to minimize the error resulting from the sedimentation.
Male Wistar rats (purchased from Laboratory Animal Center, University of Szeged) were maintained on a standard pellet rodent diet (Bioplan Ltd, Isaszeg, Hungary) under temperature and light-controlled conditions with tap water available ad libitum. The acclimatization period was at least 4 days. […] All animals were fasting for 16 hours before oral treatment. […] Water was available immediately after treatment for all animals. […] Serum samples were prepared by centrifugation (7000 rpm, 10 min, 4° C.) of the clotted blood within 60 minutes and were stored at −20° C. till analysis.
An aliquot of 200 μl serum was combined with 20 μl of internal standard working solution and 1.2 ml methanol for protein precipitation. The mixture was vortexed for 1 min and centrifuged at 12000 rpm for 10 min at 4° C. The supernatants were evaporated to dryness under a stream of nitrogen at 40° C. and reconstituted with 200 μl of water-methanol (50:50 v/v) and 20 μl was injected into the HPLC system.
Statistical analysis and graph drawing were carried out be GraphPad Prism 4.0 (GraphPad Software, San Diego, USA).

For data set [5] the following is noted: monotherapy, 108 of 3260 patients; cited from earlier work.
For data set [6] the following is noted: cited from earlier work. The source holds these as a separate data set.
Where [7] appears, read: intravenous dose of 14C-labeled Candesartan.

As for `CCOc1nc2cccc(C(=O)O)c2n1Cc1ccc(-c2ccccc2-c2nnn[nH]2)cc1` [Candesartan], in data set [1], the “crossing of the blood-brain barrier” value is “crosses the blood-brain barrier poorly, if at all”; the “passage across the placental barrier” value is “passes across the placental barrier and is distributed in the fetus”. The “dose excreted unchanged in urine” value in data set [2] (administered orally) is recorded as “about 26%”. For the same molecule, in data set [2] (after Candesartan Cilexetil administration), the “effect of food with a high fat content on bioavailability” value is “does not affect”. In addition, the “absolute bioavailability of Candesartan” value in data set [2] (following administration of Candesartan Cilexetil) is reported as 15%. For the same molecule, in data set [2] (in vivo), the “bound to plasma proteins” value is on record as above 99%, the elimination half-life result is recorded as “approximately 9 hours”, the “penetration of red blood cells” value is given as “does not penetrate red blood cells” and the renal clearance is 0.19 mL/min/kg. Further, in data set [2] (in vivo), the total plasma clearance is 0.37 mL/min/kg and the volume of distribution is given as 0.13 L/kg. In data set [2] (setting [7]), the “radioactivity recovered in feces” value is given as “approximately 36%” and the “radioactivity recovered in urine” value is reported as “approximately 59%”. In addition, the accumulation in serum result in data set [2] (repeated once-daily dosing) is “do not accumulate”.
As to `CCOc1nc2cccc(C(=O)OC(C)OC(=O)OC3CCCCC3)c2n1Cc1ccc(-c2ccccc2-c2nnn[nH]2)cc1` (racemic) [Candesartan Cilexetil, (±)-1-Hydroxyethyl 2-ethoxy-1-[p-(o-1H-tetrazol-5-ylphenyl)benzyl]-7-benzimidazolecarboxylate, cyclohexyl carbonate (ester)], the “Candesartan Cilexetil content in distilled water by UV-VIS” value in data set [3] is “cannot be detected”. Further, in data set [4], the AUC15-120 min was determined as 120.8 µg·min/mL, the AUC15-360 min is 420.2 µg·min/mL, the “maximal serum Candesartan concentration (Cmax)” value was 1612 ± 248 ng/mL and the tmax turned out to be 2 h. Besides, the “rate of withdrawals due to adverse events” value in data set [5] is listed as 3.3%. The solubility in methanol entry in data set [6] (methanol) was “sparingly soluble”. Further, the solubility in water entry in data set [6] (water) is recorded as “practically insoluble”.
